{"source": "patent US20220280543A1", "about": "“DDX17 AND NLRC4 TARGETING FOR INFLAMMATORY DISEASES” (University of Virginia Patent Foundation, priority 2019, published 2022)", "key": {"[1]": {"system": "NLRC4 phosphorylation (site S533)", "test": "SINE RNA induced NLRC4 phosphorylation (S533) in BMDM, Western blot", "assay_type": "cell-based, mouse", "details": "SINE RNAs each at 100 pmol, polyI:C 10 μg/ml (FIG. 1)", "description": "FIG. 1. SINE RNA induced NLRC4 phosphorylation (site S533) in mice macrophage (BMDM). Mouse bone marrow derived macrophage (BMDM) were treated with SINE RNAs (Alu (SEQ ID NO: 86), B1 (SEQ ID NO: 87), and B2 (SEQ ID NO: 88), each at 100 pmol), and polyI:C (10 μg/ml). Phosphorylated Nlrc4 (p-Nlrc4) and total Nlrc4 (t-Nlrc4) were detected by Western blot. Actin is provided as a loading control. The p-NLRC4 bands were indicated by black arrow.\nPrevious studies have shown that NLRC4 inflammasome activation in response to Salmonella exposure requires two steps for its activation, phosphorylation on Ser533 residue of NLRC4 and NAIP mediated oligomerization of NLRC4. […] Moreover, treatment with SINE RNAs induced caspase-1 p20 cleavage, indicative of inflammasome activation (FIG. 2). For the subsequent experiments in this study, we used Alu RNA (SEQ ID NO: 86) as the stimulus to activate the NLRC4 inflammasome. To date, two kinases are reported to phosphorylate NLRC4 at S533: protein kinase C delta (PKCδ) and leucine rich repeat-containing kinase-2 (LRRK2). To explore the roles of these kinases in Alu RNA (SEQ ID NO: 86) induced NLRC4 phosphorylation, we pretreated BMDMs with pharmacological inhibitors of LRRK2 (GSK2578215A, GSK) and PKCδ (Rottlerin, Rot) respectively."}, "[2]": {"system": "ASC specks", "test": "SINE RNA induced ASC specks in BMDM, immunofluorescence", "assay_type": "cell-based, mouse", "details": "BMDMs, transfection vs Mock (FIG. 3A)", "description": "FIGS. 3A and 3B. SINE RNA-induced ASC oligomerization is dependent on NLRC4 (BMDM). FIG. 3A. Immunofluorescence images of endogenous ASC specks and NLRC4 puncta in BMDMs after transfected with Alu (SEQ ID NO: 86) or B2 (SEQ ID NO: 88) RNA or transfection reagents only (Mock). […] Moreover, NLRC4 proteins assembled as puncta, and co-resided with ASC specks. FIG. 3B. ASC oligomerizations were evaluated in wild-type and Nlrc4^−/− BMDMs through cross-linking and western blot. […] The bands of oligomeric ASC protein were indicated by black arrow.\nThe activated NLRC4 inflammasome undergoes oligomerization by assembling into high-molecular mass multiprotein complexes. We first investigated in situ assembling of NLRC4 and apoptosis speck (ASC) like protein complexes in response to SINE RNA treatment of BMDMs. Immunofluorescence studies show increased NLRC4 and ASC specks in SINE RNA-treated BMDMs compared to mock-treated cells (FIG. 3A). To assess NLRC4 inflammasome assembly, WT and NLRC4 KO BMDM cells were treated with Alu RNA (SEQ ID NO: 86). Disuccinimidyl suberate (DSS) cross-linked lysates were resolved using denaturing SDS-PAGE to detect ASC oligomers and cell lysates were resolved using native polyacrylamide gel electrophoresis (NATIVE-PAGE) to detect NLRC4 oligomerization. […] NLRC4/ASC oligomerization is essential for the cleavage of pro-caspase-1 into its active form p20 and IL-1β release."}, "[3]": {"molecular_target": "T1, DDX17 (Homo sapiens, UniProt Q92841)", "T1 sequence (Q92841 whole entry, species assumed)": "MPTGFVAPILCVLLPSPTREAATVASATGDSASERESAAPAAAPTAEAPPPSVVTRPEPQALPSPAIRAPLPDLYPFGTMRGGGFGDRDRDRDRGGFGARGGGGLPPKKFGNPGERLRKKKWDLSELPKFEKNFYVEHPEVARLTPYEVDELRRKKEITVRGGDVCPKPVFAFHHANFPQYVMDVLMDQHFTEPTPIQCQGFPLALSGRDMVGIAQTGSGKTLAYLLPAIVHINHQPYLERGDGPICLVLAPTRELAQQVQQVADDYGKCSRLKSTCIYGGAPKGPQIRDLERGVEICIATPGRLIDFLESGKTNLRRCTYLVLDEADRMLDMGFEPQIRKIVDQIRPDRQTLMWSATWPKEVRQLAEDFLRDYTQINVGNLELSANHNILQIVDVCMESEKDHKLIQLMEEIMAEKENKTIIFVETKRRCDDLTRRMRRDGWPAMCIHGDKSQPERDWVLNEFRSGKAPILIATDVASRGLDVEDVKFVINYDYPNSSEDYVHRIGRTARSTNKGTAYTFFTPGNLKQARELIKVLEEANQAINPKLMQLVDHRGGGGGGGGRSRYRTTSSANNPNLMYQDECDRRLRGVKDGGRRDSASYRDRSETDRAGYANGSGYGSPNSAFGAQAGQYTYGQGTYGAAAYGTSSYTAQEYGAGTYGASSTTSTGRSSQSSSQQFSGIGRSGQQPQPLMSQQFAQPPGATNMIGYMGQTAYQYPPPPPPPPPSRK", "test": "DDX17 translocation in THP-1 cells, cell fractionation and immunoblot", "assay_type": "cell-based", "details": "THP-1, Alu RNA 100 pmol (FIG. 36)", "excerpt": "FIG. 36. Alu RNA (SEQ ID NO: 86) induces DDX17 translocation in human cells. Human monocytes (THP-1) were transfected with Alu RNA (SEQ ID NO: 86 at 100 pmol) using LIPOFECTAMINE™ 3000 brand transfection reagent (Lipo; ThermoFisher Scientific). Cell lysates were collected and subjected to cell fractionation. Immunoblots of DDX17 and Histone H3 were used to evaluate the subcellular distribution of DDX17. […] The bands of DDX17 in cell nucleus and cytoplasm were indicated by black arrows.\nHuman monocytes (THP-1) were treated with Alu RNA (SEQ ID NO: 86 at 100 pmol). Cell lysates were collected and subjected to cell fractionation. Immunoblots of DDX17 and Histone H3 were used to evaluate the subcellular distribution of DDX17."}, "[4]": {"molecular_target": "T1, DDX17", "test": "CLIP (cross-linking immunoprecipitation) of biotin-Alu RNA and DDX17 in HEK293 cells", "assay_type": "binding", "parameters": "Myc; expressed in transfected cells; host or cells: HEK293", "details": "UV cross-linking, streptavidin pull down (FIG. 8B)", "excerpt": "FIGS. 8A-8C. CLIP (cross-linking immunoprecipitation) on Alu RNA (SEQ ID NO: 86) and Ddx17 interaction. Human HEK293 cell transfected with btn-Alu RNA (SEQ ID NO: 86), cross-linked by ultraviolet light, pull-downed by biotin-streptavidin. The binding of Ddx17 determined by western blot. FIG. 8A. Schematic of CLIP (cross-linking immunoprecipitation) for biotin or myc-tag mediated immunoprecipitation. FIG. 8B. […] WCL is whole cell lysates. The bands of pull downed DDX17 proteins by Alu RNA (SEQ ID NO: 86) were indicated by black arrow. FIG. 8C. The HEK293 cells were transfected with myc-tagged DDX17 and biotin-Alu RNA (SEQ ID NO: 86). Cells were cross-linked and lysates for immunoprecipitation by Anti-myc beads. The total RNA was extracted, and were the Alu RNA (SEQ ID NO: 86) were detected with Northern blot. […] The bands of pull-downed Alu RNA (SEQ ID NO: 86) by myc-DDX17 proteins were indicated by black arrow.\nNext, we sought to identify the sensor responsible for Alu RNA (SEQ ID NO: 86) induced NLRC4 inflammasome activation. We employed cross-linking immunoprecipitation (CLIP)-mass spectrometry to reveal protein interaction partners of Alu RNA (SEQ ID NO: 86). […] Immunoprecipitation of the cell lysate with anti-Streptavidin (FIG. 8B) or Myc antibody (FIG. 8C) pulled down biotin-labelled Alu RNA (SEQ ID NO: 86), as detected by northern blotting. […]"}}, "data": [{"substance": "Alu RNA: human SINE RNA, SEQ ID NO: 86", "values": [{"measurement": "NLRC4 phosphorylation on S533 in BMDMs", "setting": "[1]", "value": "induced"}, {"measurement": "formation of ASC specks", "setting": "[2]", "value": "induced the formation of ASC specks"}, {"measurement": "subcellular distribution of DDX17", "setting": "[3]", "value": "induced DDX17 translocation from the nucleus to the cytoplasm"}, {"measurement": "binding of DDX17 to biotin-Alu RNA", "setting": "[4]", "value": "physically binds"}]}]}
